Test system: IL 1-induced release of neutral protease from rabbit articular chondrocytes
Assay: Inhibition of the IL 1-induced release of neutral protease from rabbit articular chondrocytes (azocoll neutral protease assay)
Format: cell-based
Settings: Oryctolagus cuniculus, Chondrocyte, purified human IL 1, 24 h after IL 1 stimulation, read-out: % Inhibition (S.D)
Method: The ability of the compounds of the inventions to inhibit interleukin 1 is measured by the ability of the test compounds to inhibit the IL 1-induced release of neutral protease from rabbit articular chondrocytes.
This assay is carried out as follows:
Isolation of rabbit chondrocytes:
Male New Zealand White rabbits are anesthetized with 50 mg/kg of ketamine (i.m.) and killed by an intracardiac injection of 3 mls. of Nembutal. The knee joints of both legs are resected and the articular surfaces are exposed. Cartilage slices are obtained using a scalpel and are placed in a tissue culture dish (100 mm diameter) containing 10 mls of Hank's balanced salt solution (HBSS). The chondrocytes within the cartilage slices are then liberated by a series of enzyme digestions. The slices are incubated for 10 min. at 37° C. in 0.05% hyaluronidase (Sigma H-3884), rinsed with HBSS and incubated with 0.2% trypsin (Sigma T-2395) for 10 min. at 37° C. The slices are rinsed again and incubated for 10 mins. at 37° C. with 1.2% collagenase (Sigma C-5138). The slices are then rinsed again with HBSS and resuspended in 10 ml of Ham's F-12 medium containing 10% fetal bovine calf cerum (FCS) and 0.2% collagenase and incubated overnight at 37° C. in a 5% CO2 incubator. The next day, the medium containing the digested cartilage fragments and liberated chondrocytes is transferred to a 15 ml centrifuge tube and the cells are collected by centrifugation and washed twice and resuspended in Ham's F-12 medium. The cells are then plated into 24-well tissue culture plates (2×10^5 cells/well) and incubated at 37° C. until confluent (usually 4-6 days).
Stimulation of chondrocytes and drug treatment:
The confluent chondrocytes are rinsed twice with serum-free Ham's F-12 medium and 1 ml is added to each well. Fifty μl of purified human IL 1 (100 Units/ml; Genzyme Corporation, Boston, MA) is then added to stimulate these cells to secrete neutral protease. To measure drug effects, the cells are treated with test compound 10 min. prior to addition of IL 1. The standard screening dose is 10 μM. Twenty-four hours after IL 1 stimulation, supernatant fluids are collected and assayed for neutral protease activity.
The neutral protease activity of chondrocyte supernatant fluids is determined by their ability to degrade an insoluble protease substrate, azocoll (Sigma). Supernatants are treated for 10 min. at room temperature with 350 μM p-aminophenylmurcuric acetate to activate the latent enzyme. Three hundred μl of supernatant is then mixed with 500 μl of a 20 mg/ml suspension of azocoll and incubated at 37° C. for 18-24 hrs. with gentle rocking. The mixtures are centrifuged and the amount of substrate hydrolyzed is determined by measuring the absorbance of the supernatant at 520 nm.
Drug effects are calculated as the % change in enzyme activity (absorbance)by supernatants from drug-treated chondrocytes relative to enzyme activity of supernatants from vehicle-treated chondrocytes as follows: [formula]

Row | Structure (SMILES) | inhibition at 10 µM | inhibition at 0.1 µM | inhibition at 1 µM
1 | N#Cc1ccc(N2CCc3nc4cc(Cl)ccc4c(Cl)c3C2)cc1 [Example 1, 4-(7,10-Dichloro-3,4-dihydrobenzo[b][1,6]naphthyridin-2(1H)-yl)benzonitrile] | 22 ± 1% |  | 
2 | CCOC(=O)c1ccc(N2CCc3nc4cc(Cl)ccc4c(Cl)c3C2)cc1 [Example 2, 4-(7,10-Dichloro-3,4-dihydrobenzo[b][1,6]naphthyridin-2(1H)-yl)benzoic acid ethyl ester] | 35 ± 16% |  | 
3 | CS(=O)(=O)c1ccc(N2CCc3nc4cc(Cl)ccc4c(Cl)c3C2)cc1 [Example 3, 7,10-Dichloro-1,2,3,4-tetrahydro-2-(4-methylsulfonyl)phenylbenzo[b][1,6]naphthyridine] | 62 ± 2% | 69 ± 1% | 66 ± 1%
4 | Fc1ccc(N2CCc3nc4cc(Cl)ccc4c(Cl)c3C2)cc1 [Example 4, 7,10-Dichloro-2-(4-fluorophenyl)-1,2,3,4-tetrahydrobenz[b][1,6]naphthyridine] | 76 ± 29% |  | 9 ± 20%
5 | N#Cc1ccc(N2CCc3nc4ccccc4c(Cl)c3C2)cc1 [Example 5, 4-(10-Chloro-3,4-dihydrobenzo[b][1,6]naphthyridine-2(1H)-yl)benzonitrile, hemihydrate] | 66 ± 29% |  | 
6 | CCOC(=O)c1ccc(N2CCc3nc4ccccc4c(Cl)c3C2)cc1 [Example 8, 4-(10-Chloro-3,4-dihydrobenzo[b][1,6]naphthyridin-2(1H)-yl)benzoic acid ethyl ester] | 91% | 40% | 43%
7 | N#Cc1ccc(N2CCc3nc4ccc(Cl)cc4c(Cl)c3C2)cc1 [Example 9, 4-(8,10-Dichloro-3,4-dihydrobenzo[b][1,6]naphthyridin-2(1H)-yl)benzonitrile, 1/4 hydrate] | 86% |  | 43%
8 | Cc1ccc2c(Cl)c3c(nc2c1)CCN(c1ccc(C#N)cc1)C3 [Example 10, 4-(10-Chloro-3,4-dihydro-7-methylbenzo[b][1,6]naphthyridin-2(1H)-yl)benzonitrile, 1/5 ethyl acetate] | 33% |  | 
9 | N#Cc1ccc(N2CCc3nc4cc(F)ccc4c(Cl)c3C2)cc1 [Example 11, 4-(10-Chloro-7-fluoro-3,4-dihydrobenzo[b][1,6]naphthyridin-2(1H)-yl)benzonitrile, 1/4 hydrate] | < 20% |  | 
10 | N#Cc1ccc(N2CCc3nc4cc(Cl)ccc4c(NNc4ccccc4)c3C2)cc1 [Example 12, 4-[7-Chloro-3,4-dihydro-10-(2-phenylhydrazino)benzo[b][1,6]naphthyridin-2(1H)-yl]benzonitrile, hydrate] | 69% |  | 
